pIC50, pKd: −log10 of the molar value. Entries after “also recorded” stand apart in the source; their conditions may differ.
Assays:
[1] = test system: MEK and ERK activity; assay: Western blot ERK and MEK activity in AML12 cells; type: cell-based; details: 2-10 μM, 24 hours
[2] = molecular target: GIT1-cyclin B1 interaction (Homo sapiens, UniProt Q9Y2X7); assay: Co-IP GIT1-cyclin B1 interaction in HepG2; type: cell-based; details: HepG2, 10 μM, 24 h
Procedure: HepG2 cells were treated with compound C3 at 10 μM for 24 h and subjected to co-IP with anti-GIT1 or anti-cyclin B1 and blotted for cyclin B1 and GIT1, ratios of cyclin B1 bound to GIT1 vs. DMSO control are shown, *p<0.05 vs. DMSO from n=3 (FIG. 38B).
In vitro translated GIT1, recombinant MAT2B, and cyclin B1 (both 0.5 μg) were used to evaluate their direct binding, as shown in the blots of FIG. 18A. Also shown, is the results of (FIG. 18B) treating HepG2 cells with a GIT1 inhibitor at 10 μM for 24 hours and subjected to co-IP with anti-GIT1 or cyclin B1 antibody and immunoblotted for cyclin BI and GIT1. In vitro translated GIT1, recombinant MAT2B, and cyclin B1 (both 0.5 μg) were used to evaluate their direct binding. The ratio of cyclin BI bound to GIT1 was compared to DMSO control.

[3] = test system: MC38 cells; assay: MC38 CRC liver metastasis (CRLM) model in immune competent mice; type: in vivo
Procedure: FIG. 40A-FIG. 40E depicts, in accordance with various embodiments of the invention, compound C3 inhibits CRC liver metastasis in immune competent mice. MC38 cells (2.5×10^5) stably expressing luciferase where injected intrasplenically followed by splenectomy. 7 days later compound C3 (20 mg/kg on day 1 sinc MC38 grows rapidly, then 15 mg/kg daily×3 days, rest for 2 days, then 15 mg/kg×2 days) or DMSO were given ip. Small animal imaging (FIG. 40A). H&E of tumors (FIG. 40B). Luciferase intensity at various time points (FIG. 40C). Gross pictures of the livers at day 9 (FIG. 40D), ALT and AST levels after above, or compound C3 (15 mg/kg/d for 21 days), *p<0.05 vs. DMSO (FIG. 40E).
Compound C3 powder was dissolved in pure DMSO at 50 mg/ml, as a stock store in-80 °C. Stock solution was dissolved in 200 μl 0.9% saline to reach 15 mg/kg. For control group, DMSO was dissolved in 200 μl saline to achieve a concentration of DMSO in saline of 4.5%. MC38 cells (2.5×105) stably expressing luciferase were injected intrasplenically followed by splenectomy (CRLM model). Seven days later, Compound C3 (20 mg/kg on day 1, then 15 mg/kg daily ×3 days, rest for 2 days, then 15 mg/kg×2 days) or DMSO were administered ip.

[4] = test system: malignant (HepG2, MzChA-1, HT-29, RKO) cells; assay: EdU/MTT growth assay in cancer cells; type: cell-based
Procedure: (§1) The inventors identified nine inhibitors and perfomed an EdU assay after treating non-malignant (HEK293, AML12) and malignant (HepG2, MzChA-1, HT-29, RKO) cells with varying concentrations of GIT1 inhibitor for 24 hours (results are mean±SE from 3 independent experiments done in duplicates, *p<0.05 vs. DMSO). An MTT assay was also performed after treating primary human and mouse hepatocytes and liver and colon cancer cells with varying concentrations of GIT1 inhibitor for 24 hours (results are mean±SE from 3 independent experiments done in duplicates, *p<0.05 vs. DMSO). […] Percoll may be used to remove dead human hepatocytes.

[5] = test system: human hepatocytes; assay: Annexin V-FITC/propidium iodide assay human hepatocytes; type: cell-based; details: 5 μM, 24-48 hours
Procedure: (§2) FIG. 8 depicts, in accordance with various embodiments of the invention, results of an annexin V-FITC/propidium iodide binding assay performed in human and mouse hepatocytes, AML12, HEK293, HepG2, and RKO cells after treatment with 5 μM of a GIT1 inhibitor or DMSO for 24-48 hours (results are shown as mean±SE from at least 3 experiments. *p<0.05 vs. DMSO).
(§3) An annexin V-FITC/propidium iodide (PI) binding assay was performed with flow cytometry. […] Both G2/M arrest and cell death are mechanisms by which compound C3 inhibits cancer cells' growth.

[6] = test system: HepG2 cells; assay: Clonogenic assay HepG2; type: cell-based; details: 1 μM, 24 hours then drug free medium 10-20 days; dose dependent
Procedure: (§4) RKO, HepG2, and AML12 cells were treated with 1-10 μM compound C3 for 24 hours and maintained in drug free medium for 10-20 days.

[7] = molecular target: GIT1-GFP (Homo sapiens, UniProt Q9Y2X7); assay: MST binding to GIT1-GFP
Chain of GIT1-GFP (Q9Y2X7 1-770 isoform Q9Y2X7-3): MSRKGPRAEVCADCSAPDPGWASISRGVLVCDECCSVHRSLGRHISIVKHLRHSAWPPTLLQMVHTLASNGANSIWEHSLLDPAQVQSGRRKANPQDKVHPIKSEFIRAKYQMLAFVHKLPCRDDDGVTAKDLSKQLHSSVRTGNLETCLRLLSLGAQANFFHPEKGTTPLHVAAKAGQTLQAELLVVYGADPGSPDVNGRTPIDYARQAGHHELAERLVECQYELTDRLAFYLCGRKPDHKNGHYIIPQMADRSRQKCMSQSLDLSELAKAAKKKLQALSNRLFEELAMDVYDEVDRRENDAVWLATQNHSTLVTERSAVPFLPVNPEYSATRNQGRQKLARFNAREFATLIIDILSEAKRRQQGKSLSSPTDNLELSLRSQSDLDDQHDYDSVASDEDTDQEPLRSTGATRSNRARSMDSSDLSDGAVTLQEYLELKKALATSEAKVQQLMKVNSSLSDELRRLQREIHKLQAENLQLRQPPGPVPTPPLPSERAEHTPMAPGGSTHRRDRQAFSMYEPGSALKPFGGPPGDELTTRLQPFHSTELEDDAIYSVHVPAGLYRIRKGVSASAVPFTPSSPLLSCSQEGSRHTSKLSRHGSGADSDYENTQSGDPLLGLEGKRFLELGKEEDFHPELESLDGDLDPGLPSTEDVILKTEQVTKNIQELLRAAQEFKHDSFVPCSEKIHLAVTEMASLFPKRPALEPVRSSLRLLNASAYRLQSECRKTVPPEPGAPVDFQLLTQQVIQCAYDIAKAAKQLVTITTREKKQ

[8] = molecular target: GIT2-GFP (Homo sapiens, UniProt Q14161); assay: MST binding to GIT2-GFP
Chain of GIT2-GFP (Q14161 whole entry): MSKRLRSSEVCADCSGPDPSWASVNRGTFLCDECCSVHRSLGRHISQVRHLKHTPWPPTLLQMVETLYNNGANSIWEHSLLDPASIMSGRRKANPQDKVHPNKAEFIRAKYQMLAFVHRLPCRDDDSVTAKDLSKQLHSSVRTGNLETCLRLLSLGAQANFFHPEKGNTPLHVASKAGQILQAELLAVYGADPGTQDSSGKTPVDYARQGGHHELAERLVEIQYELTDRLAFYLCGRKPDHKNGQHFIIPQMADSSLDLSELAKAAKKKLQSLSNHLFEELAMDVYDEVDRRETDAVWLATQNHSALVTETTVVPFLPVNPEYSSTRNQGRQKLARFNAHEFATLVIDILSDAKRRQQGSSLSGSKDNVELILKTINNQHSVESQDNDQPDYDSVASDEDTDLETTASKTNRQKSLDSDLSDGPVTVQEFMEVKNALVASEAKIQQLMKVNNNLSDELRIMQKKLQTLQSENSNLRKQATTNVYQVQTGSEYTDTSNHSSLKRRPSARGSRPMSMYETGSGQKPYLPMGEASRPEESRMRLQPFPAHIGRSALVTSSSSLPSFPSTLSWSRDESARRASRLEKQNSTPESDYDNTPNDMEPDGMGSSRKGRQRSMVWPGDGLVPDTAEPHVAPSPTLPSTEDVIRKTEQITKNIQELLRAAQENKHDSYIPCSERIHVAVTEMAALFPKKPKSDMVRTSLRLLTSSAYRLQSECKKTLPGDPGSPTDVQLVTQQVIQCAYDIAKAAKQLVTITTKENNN

[9] = test system: AML12 cells; assay: Cell cycle flow cytometry AML12; type: cell-based; details: 1-5 μM, 24 hours
[10] = test system: MC38 cells; assay: Syngeneic subcutaneous MC38 mouse model; type: in vivo, C57/BL6 mouse
Procedure: MC38 cells were injected subcutaneously in both flanks. Compound C3 and DMSO were injected intratumorally every other day at 100 μM (5×IC50) starting at day 7 when the tumors averaged 0.5 cm in diameter. Tumor size was measured by caliper, with the tumor volume calculated according to the formula: (π/6)*(length*width*height). Each mouse received compound C3 injection in tumors on one flank and DMSO in the contralateral tumor. Animals were sacrificed on day 13.

[11] = test system: RKO cells; assay: MTT assay in RKO cells; type: cell-based; details: Homo sapiens
Procedure: as §1

[12] = molecular target: GIT1-MAT2B (Homo sapiens, UniProt Q9Y2X7); assay: Co-IP MAT2B-GIT1 interaction in HepG2 cells; type: cell-based; details: HepG2, 10 μM, 24 hours
Chain of GIT1-MAT2B (Q9Y2X7 whole entry): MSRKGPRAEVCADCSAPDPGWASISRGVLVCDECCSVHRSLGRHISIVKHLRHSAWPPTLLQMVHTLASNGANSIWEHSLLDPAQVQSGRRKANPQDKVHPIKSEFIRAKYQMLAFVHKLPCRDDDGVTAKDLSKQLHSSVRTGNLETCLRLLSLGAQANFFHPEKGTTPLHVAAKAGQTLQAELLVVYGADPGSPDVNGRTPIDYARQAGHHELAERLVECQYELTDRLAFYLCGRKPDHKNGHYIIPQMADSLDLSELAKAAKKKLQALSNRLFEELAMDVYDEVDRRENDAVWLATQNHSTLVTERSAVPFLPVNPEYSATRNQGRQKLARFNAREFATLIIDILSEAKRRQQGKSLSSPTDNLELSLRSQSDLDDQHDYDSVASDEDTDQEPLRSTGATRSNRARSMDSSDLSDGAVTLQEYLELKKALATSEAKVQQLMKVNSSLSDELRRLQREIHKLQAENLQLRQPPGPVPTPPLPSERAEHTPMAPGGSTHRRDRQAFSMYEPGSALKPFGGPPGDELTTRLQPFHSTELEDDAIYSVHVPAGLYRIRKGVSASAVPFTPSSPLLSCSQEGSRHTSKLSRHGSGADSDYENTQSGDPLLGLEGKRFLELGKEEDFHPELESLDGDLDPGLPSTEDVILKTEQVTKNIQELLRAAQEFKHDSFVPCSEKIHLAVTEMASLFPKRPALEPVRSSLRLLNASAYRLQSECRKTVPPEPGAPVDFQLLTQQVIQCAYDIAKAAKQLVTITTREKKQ
Excerpt: GIT1-MAT2B scaffold complex sequesters and activates RAS/RAF/MEK/ERK signaling.

[13] = test system: HepG2 cells; assay: MTT assay in HepG2 cells; type: cell-based; details: Homo sapiens
Procedure: as §1

[14] = test system: RKO cells; assay: Clonogenic assay RKO; type: cell-based, human; details: 1 μM, 24 hours then drug free medium 10-20 days; dose dependent
Procedure: as §4

[15] = test system: HEK293 cells; assay: Cell cycle flow cytometry HEK293; type: cell-based; details: 1-5 μM, 24 hours
[16] = test system: HEK293 cells; assay: Annexin V-FITC/propidium iodide assay HEK293; type: cell-based; details: 5 μM, 24-48 hours
Procedure: as §2, §3

[17] = 100 μM intratumorally every other day
[18] = 100 μM intratumorally, western blot

Chain of GIT1-cyclin B1 interaction (Q9Y2X7 whole entry): as above

## CC1(C)Cc2nc3sc4c(=O)n(CC(=O)NCc5ccco5)cnc4c3cc2CO1 [Compound C3, 2-(8,8-Dimethyl-4-oxo-7,10-dihydro-8H-pyrano[3″,4″: 5′,6′]pyrido[3′,2′: 4,5]thieno[3,2-d]pyrimidin-3 (4H)-yl)-N-(2-furylmethyl) acetamide]
[1]
  ERK and MEK activities, AML12: not in AML12 cells
[2]
  GIT1-cyclin B1 interaction: promotes their interaction; also recorded: enhances GIT1-cyclin BI interaction
[3]; ip 20 mg/kg day 1, 15 mg/kg daily ×3 days, rest 2 days, 15 mg/kg×2 days
  tumor growth, liver metastasis: Tumor growth was inhibited
[3]; ip 20 mg/kg day 1, then 15 mg/kg, ALT and AST
  toxicity: without toxicity
[4]
  apoptosis in cancer cells (FIG. 33): slight increase in apoptosis
[4]; 10 μM, 24 hours
  cytotoxicity in cancer cells: cytotoxic in cancer cells at 10 μM
[4]; 24 hours, among nine inhibitors
  growth inhibitory effect: most potent growth inhibitory effect
[5]
  cell death, human hepatocytes: does not induce cell death
[6]
  clonogenic potential, HepG2: inhibited the clonogenic potential
[7]
  pKd: 5.21
  binding to GIT1-GFP: binds to GIT1-GFP
[8]
  binding to GIT2-GFP: not GIT2-GFP
[9]
  G2/M arrest, AML12: did not occur
[10]; [17]
  H&E of tumors: spindle MC38 tumor cells turned into small round cells
  H&E staining of major organs: no tissue damage or toxicity
  PCNA staining in tumors: dramatic effect in reducing its staining
  TUNEL assay of tumors: more apoptopic cells
  body weights: not significantly different
[10]; 100 μM intratumorally every other day from day 7, day 13
  tumor growth, subcutaneous: inhibits colon cancer growth
[10]; [18]
  MEK1/2 activity in tumors: decreased MEK1/2 activity
  cyclin D1 level in tumors: less cyclin D1 level
[11]
  pIC50: ~4.70
[12]
  GIT1-MAT2B scaffold formation: disrupted GIT1-MAT2B scaffold formation
[13]
  pIC50: ~4.70
[14]
  clonogenic potential, RKO: inhibited the clonogenic potential
[15]
  G2/M arrest, HEK293: did not occur
[16]
  cell death, HEK293: does not induce cell death
